≈ marks a conversion by molar mass, not a printed value.
Assays:
S. aureus ATCC 29213 = experiment: MIC determination, S. aureus ATCC 29213; format: cell-based, Staphylococcus aureus; details: for MIC S. aureus ATCC 29213: Table 1; for MIC: Staphylococcus aureus, ATCC29213, Table 1, read-out: MIC S. aureus ATCC 29213
[1] = test system: S. epidermidis ATCC 12228; experiment: MIC determination, S. epidermidis ATCC 12228; format: cell-based, Staphylococcus epidermidis; details: for MIC S. epidermidis ATCC 12228: Table 1; for MIC: Staphylococcus epidermidis, ATCC12228, Table 1, read-out: MIC S. epidermidis ATCC 12228
S. pneumoniae ATCC 6301 = experiment: MIC determination, S. pneumoniae ATCC 6301; format: cell-based, Streptococcus pneumoniae; details: for MIC S. pneumoniae ATCC 6301: Table 1; for MIC: Streptococcus pneumoniae, ATCC6301, Table 1, read-out: MIC S. pneumoniae ATCC 6301
E. faecalis ATCC 29212 = experiment: MIC determination, E. faecalis ATCC 29212; format: cell-based, Enterococcus faecalis; details: for MIC E. faecalis ATCC 29212: Table 1; for MIC: Enterococcus faecalis, ATCC29212, Table 1, read-out: MIC E. faecalis ATCC 29212
E. faecium CT-26 = experiment: MIC determination, E. faecium CT-26; format: cell-based, Enterococcus faecium; details: for MIC E. faecium CT-26: Table 1; for MIC: Enterococcus faecium, CT26, Table 1, read-out: MIC E. faecium CT-26
[2] = test system: M. catarrhalis ATCC 25238; experiment: MIC determination, M. catarrhalis ATCC 25238; format: cell-based; details: for MIC M. catarrhalis ATCC 25238: Table 1; for MIC: Moraxella catarrhalis, ATCC25238, Table 1, read-out: MIC M. catarrhalis ATCC 25238

MIC (S. aureus ATCC 29213) [µg/mL]	MIC [1] [µg/mL]	MIC (S. pneumoniae ATCC 6301) [µg/mL]	MIC (E. faecalis ATCC 29212) [µg/mL]	MIC (E. faecium CT-26) [µg/mL]	MIC [2] [µg/mL]	Structure (SMILES)	MIC S. aureus ATCC 29213 (S. aureus ATCC 29213) [micrograms per ml]	MIC S. epidermidis ATCC 12228 [1] [micrograms per ml]	MIC S. pneumoniae ATCC 6301 (S. pneumoniae ATCC 6301) [micrograms per ml]	MIC E. faecalis ATCC 29212 (E. faecalis ATCC 29212) [micrograms per ml]	MIC E. faecium CT-26 (E. faecium CT-26) [micrograms per ml]	MIC M. catarrhalis ATCC 25238 [2] [micrograms per ml]
–	–	–	–	–	–	Oc1cccc2cccnc12 [Compound 100, 8-hydroxyquinoline]	2	1	2	4	2	1
–	–	–	–	–	–	Oc1cccc2cccnc12 [Compound 15, 8-hydroxyquinoline]	0.125	1	2	16	4	0.5
–	–	–	–	–	–	Oc1cccc2cccnc12 [Compound 92, 8-hydroxyquinoline]	2	1	2	8	4	1
–	–	–	–	–	–	N#Cc1ccc(OB(c2cccc(Cl)c2)c2cccc(Cl)c2)c2ncccc12 [Compound 19, Bis(3-Chlorophenyl)borinic acid 5-cyano-8-hydroxyquinoline ester]	0.25	2	4	16	4	0.5
–	–	–	–	–	–	Oc1cccc2cccnc12 [Compound 87, 8-hydroxyquinoline]	2	1	2	8	4	1
–	–	–	–	–	–	Cc1ccnc2c(O)cccc12 [Compound 67]	2	1	1	64	4	0.5
–	–	–	–	–	–	Oc1cccc2cccnc12 [Compound 85, 8-hydroxyquinoline]	2	1	2	4	4	2
–	–	–	–	–	–	Cc1ccnc2c(O)cccc12 [Compound 66]	2	1	1	64	4	0.5
–	–	–	–	–	–	Oc1cccc2cccnc12 [Compound 84, 8-hydroxyquinoline]	2	1	2	8	4	4
–	–	–	–	–	–	Oc1cccc2cccnc12 [Compound 60, 8-hydroxyquinoline]	2	1	2	8	4	2
–	–	–	–	–	–	C=CB(Oc1cccc2cccnc12)c1cccc(C#N)c1 [Compound 40, (3-Cyanophenyl)vinylborinic acid 8-hydroxyquinoline ester]	1	1	1	8	2	2
–	–	–	–	–	–	Oc1cccc2cccnc12 [Compound 68, 8-hydroxyquinoline]	2	2	16	32	4	0.12
0.5 (≈ 1.65 µM)	8 (≈ 26.4 µM)	8 (≈ 26.4 µM)	64 (≈ 211 µM)	32 (≈ 106 µM)	0.12 (≈ 0.396 µM)	Oc1c(Br)cc(Br)c2cccnc12 [Compound 24]	–	–	–	–	–	–
0.5 (≈ 2.63 µM)	4 (≈ 21 µM)	2 (≈ 10.5 µM)	64 (≈ 337 µM)	16 (≈ 84.1 µM)	0.12 (≈ 0.631 µM)	O=[N+]([O-])c1ccc(O)c2ncccc12 [Compound 22]	–	–	–	–	–	–
–	–	–	–	–	–	Oc1cccc2cccnc12 [Compound 74, 8-hydroxyquinoline]	2	1	2	32	2	1
–	–	–	–	–	–	Oc1cccc2cccnc12 [Compound 41, 8-hydroxyquinoline]	1	1	1	4	2	1
–	–	8 (≈ 37.4 µM)	64 (≈ 299 µM)	–	0.12 (≈ 0.561 µM)	Oc1c(Cl)cc(Cl)c2cccnc12 [Compound 23]	0.5	16	–	–	16	–
–	–	–	–	–	–	Oc1cccc2cccnc12 [Compound 48, 8-hydroxyquinoline]	1	1	1	8	2	2
–	–	–	–	–	–	Clc1cccc(B(Oc2cccc3cccnc23)c2cccs2)c1 [Compound 36, (3-Chlorophenyl)(2-thienyl)borinic acid 8-hydroxyquinoline ester]	1	1	2	8	2	4
–	–	–	–	–	–	Oc1cccc2cccnc12 [Compound 91, 8-hydroxyquinoline]	2	1	2	8	2	1
–	–	–	–	–	–	Oc1ccc(F)c2cccnc12 [Compound 62]	2	2	2	8	4	2
–	–	–	–	–	–	Oc1cccc2cccnc12 [Compound 83, 8-hydroxyquinoline]	2	1	2	4	4	2
–	–	–	–	–	–	Oc1cccc2cccnc12 [Compound 32, 8-hydroxyquinoline]	1	1	1	16	2	2
–	–	–	–	–	–	Oc1cccc2cccnc12 [Compound 54, 8-hydroxyquinoline]	2	1	2	8	4	1
–	–	–	–	–	–	Oc1cccc2cccnc12 [Compound 47, 8-hydroxyquinoline]	1	1	1	8	2	1
–	–	–	–	–	–	Oc1ccc(F)c2cccnc12 [Compound 64]	2	2	4	8	8	1

Source: patent publication US7390806B2, “Antibiotics containing borinic acid complexes and methods of use” (Anacor Pharmaceuticals, Inc., priority 2002, dated 2008)
